This assay deals with M. tuberculosis H37Rv.

As to `[HH]` [hydrogen], the “effect on viability / lethality (words, FIG. 1)” value is given as “as effective as Bioblend”.
For Carbon dioxide, the “effect on viability / lethality (words, FIG. 1)” value is reported as “only a slight lethal effect”.

For the origin of these results see patent publication US20130133650A1, “GAS-BASED TREATMENT FOR INFECTIVE DISEASE” (priority 2010, published 2013).
